Consider 43 compounds from patent publication US8759366B2, “Aminopyrimidines as SYK inhibitors” (Merck Sharp & Dohme Corp., priority 2009, dated 2014).

The structures appear in SMILES notation. Counter-ions that a name gives are not always drawn.

The experiment deals with rhSYK (Homo sapiens (Human), UniProt P43405). As to conditions: read-out: rhSYK activity.
On to `Cc1cc(Nc2nccc(C(F)(F)F)n2)cc(-c2cnc(C3(NC(N)=O)CCC3)s2)c1` [Example 64, 1-{1-[5-(3-methyl-5-{[4-(trifluoromethyl)pyrimidin-2-yl]amino}phenyl)-1,3-thiazol-2-yl]cyclobutyl}urea], for which the IC50 was < 100 nM.

As to `Cc1cc(Nc2nccc(C(F)(F)F)n2)cc(-c2cnc(C3(O)CCCC(C)(CC(=O)O)C3)s2)c1` (stereo not shown) [Example 4C-23], the IC50 is < 100 nM.

Turning to `Cc1cc(Nc2nccc(C)n2)cc(-c2cnc(C3(O)CCC(C)(CC(=O)O)CC3)s2)c1` (single isomer, unassigned) [Example 4C-11], the IC50 was < 100 nM. `Cc1cc(Nc2nccc(C(F)(F)F)n2)cc(-c2cnc(C3CCC3)s2)c1` [13-1]: the IC50 lay within 100 to 1000 nM. The result for `Fc1ccc(Nc2nccc(C(F)(F)F)n2)cc1Br` [N-(3-bromo-4-fluorophenyl)-4-(trifluoromethyl)pyrimidin-2-amine] reads 1000 to 10000 nM; that for `OC1(c2ncc(-c3cccc(Nc4nccc(C(F)(F)F)n4)c3)s2)CCCCCC1` [Example 4C-1], < 100 nM. `Cc1cc(Nc2nccc(C(F)(F)F)n2)cc(-c2cnc(C(C)C)s2)c1` [Example 13, N-{3-methyl-5-[2-(1-methylethyl)-1,3-thiazol-5-yl]phenyl}-4-(trifluoromethyl)pyrimidin-2-amine]: the IC50 is < 100 nM.

`CC(=O)NC12CC3CC(C1)C(O)(c1ncc(-c4cc(C)cc(Nc5nccc(C(F)(F)F)n5)c4)s1)C(C3)C2` (stereo not shown) [Example 4B-51]: the IC50 was < 100 nM. With `Cc1cc(Nc2nccc(C(F)(F)F)n2)cc(-c2cnc(C3(O)CCC(C4(N)CC4)CC3)s2)c1` (stereo not shown) [Example 4C-19], the IC50 is < 100 nM. Under `Cc1cc(Nc2nccc(C(F)(F)F)n2)cc(-c2cnc(C3(O)CCOCC3)s2)c1` [Example 4B-13] stands < 100 nM; under `CC(C)(c1ncc(-c2cc(Nc3nccc(C(F)(F)F)n3)cc([N+](=O)[O-])c2)s1)S(N)(=O)=O` [Example 70, 2-[5-(3-nitro-5-{[4-(trifluoromethyl)pyrimidin-2-yl]amino}phenyl)-1,3-thiazol-2-yl]propane-2-sulfonamide], 100 to 1000 nM; under `Cc1cc(Nc2nccc(C(F)(F)F)n2)cc(-c2cnc([C@]3(O)CC[C@@H](c4n[nH]c(=O)o4)CC3)s2)c1` [Example 55, 5-{cis-4-hydroxy-4-[5-(3-methyl-5-{[4-(trifluoromethyl)pyrimidin-2-yl]amino}phenyl)-1,3-thiazol-2-yl]cyclohexyl}-1,3,4-oxadiazol-2(3H)-one], < 100 nM. In the case of `CC(O)(CO)c1ncc(-c2cccc(Nc3nccc(C(F)(F)F)n3)c2)s1` (single isomer, unassigned) [Ex 5-2], the IC50 was < 100 nM. The result for `O=C(c1ncc(-c2cccc(Nc3nccc(C(F)(F)F)n3)c2)s1)C(F)(F)F` [Example 6-1] reads < 100 nM; that for `CC(C)(O)c1ncc(-c2cc(Nc3nccc(C(F)(F)F)n3)cc(C3CC3)c2)s1` [Example 31, 2-[5-(3-cyclopropyl-5-{[4-(trifluoromethyl)pyrimidin-2-yl]amino}phenyl)-1,3-thiazol-2-yl]propan-2-ol], < 100 nM; that for `Cc1cc(Nc2nccc(C(F)(F)F)n2)cc(-c2cnc(C3(C)OC(=O)CC3(C)C)s2)c1` (stereo not shown) [Example 4B-61], < 100 nM. Under `Cc1cc(Nc2nccc(C(C)C)n2)cc(-c2cnc(C3(O)CCC3)s2)c1` [Example 56, 1-[5-(3-methyl-5-{[4-(propan-2-yl)pyrimidin-2-yl]amino}phenyl)-1,3-thiazol-2-yl]cyclobutanol HCl salt] stands < 100 nM. The result for `CCOC(=O)C1CCC(O)(c2ncc(-c3cc(C)cc(Nc4nccc(C)n4)c3)s2)CC1c1ccc(F)cc1` (stereo not shown) [Example 4C-28] reads 100 to 1000 nM; that for `CC(=O)Nc1cc(Nc2nccc(C(F)(F)F)n2)cc(-c2cnc(C(C)(C)S(N)(=O)=O)s2)c1` [Example 72, N-(3-[2-(2-sulfamoylpropan-2-yl)-1,3-thiazol-5-yl]-5-{[4-(trifluoromethyl)pyrimidin-2-yl]amino}phenyl)acetamide], < 100 nM.

For `Cc1cc(Nc2nccc(C)n2)cc(-c2cnc(C3(O)CCC(C(=O)O)[C@@H]4CCCC[C@H]43)s2)c1` (stereo partly shown) [Example 4B-21], the IC50 is < 100 nM.

Turning to `CNC(=O)N1CCC(O)(c2ncc(-c3cc(C)cc(Nc4nccc(C(F)(F)F)n4)c3)s2)CC1` [Example 52, 4-hydroxy-N-methyl-4-[5-(3-methyl-5-{[4-(trifluoromethyl)pyrimidin-2-yl]amino}phenyl)-1,3-thiazol-2-yl]piperidine-1-carboxamide], the IC50 is < 100 nM. Regarding `Cc1cc(Nc2nccc(C(F)(F)F)n2)cc(-c2cnc(C(C)(O)C(C)(C)O)s2)c1` (stereo not shown) [Ex 5-4], the IC50 was < 100 nM. The result for `FC(F)(F)c1ccnc(Nc2cccc(-c3cncs3)c2)n1` [Intermediate 7, N-[3-(1,3-thiazol-5-yl)phenyl]-4-(trifluoromethyl)pyrimidin-2-amine] reads 100 to 1000 nM; that for `Cc1cc(Nc2nccc(C(F)(F)F)n2)cc(-c2cnc(C3(C#N)CCC4(CC3)OCCO4)s2)c1` [8-[5-(3-methyl-5-{[4-(trifluoromethyl)pyrimidin-2-yl]amino}phenyl)-1,3-thiazol-2-yl]-1,4-dioxaspiro[4.5]decane-8-carbonitrile], < 100 nM; that for `Cc1cc(Nc2ncc(Cl)cn2)cc(-c2cnc(C(O)(CO)CO)s2)c1` [Ex 5-20], 100 to 1000 nM. The result for `Cc1cc(Nc2nccc(C(F)(F)F)n2)cc(-c2cnc(C3(O)CCN(S(=O)(=O)c4ccccc4)CC3)s2)c1` [Example 50, 4-[5-(3-methyl-5-{[4-(trifluoromethyl)pyrimidin-2-yl]amino}phenyl)-1,3-thiazol-2-yl]-1-(phenylsulfonyl)piperidin-4-ol] reads 100 to 1000 nM; that for `CCOC(=O)C1CCC(O)(c2ncc(-c3cc(C)cc(Nc4nccc(C(F)(F)F)n4)c3)s2)CC1` (mixture of isomers) [Example 32, ethyl 4-hydroxy-4-[5-(3-methyl-5-{[4-(trifluoromethyl)pyrimidin-2-yl]amino}phenyl)-1,3-thiazol-2-yl]cyclohexanecarboxylate], < 100 nM; that for `Cc1cc(Nc2nccc(C(F)(F)F)n2)cc(-c2cnc(C(C)(O)c3ccc(C(C)(C)O)cc3)s2)c1` (stereo not shown) [Example 9-1], 100 to 1000 nM.

Take `Cc1cc(Nc2nccc(C)n2)cc(-c2cnc([C@]3(O)[C@@H]4CC5C[C@@H]3C[C@](C(=O)O)(C5)C4)s2)c1` [Example 4B-31]: the IC50 was < 100 nM. For `Cc1cc(Nc2nccc(C(F)(F)F)n2)cc(-c2cnc(C(NC(=O)NC(N)=O)(C3CC3)C3CC3)s2)c1` [Example 65, N-{dicyclopropyl[5-(3-methyl-5-{[4-(trifluoromethyl)pyrimidin-2-yl]amino}phenyl)-1,3-thiazol-2-yl]methyl}dicarbonimidic diamide], the IC50 is < 100 nM. With `CSc1ccc(C(C)(O)c2ncc(-c3cc(C)cc(Nc4nccc(C(F)(F)F)n4)c3)s2)cc1` (stereo not shown) [Example 4A-57, 1-[4-(methylsulfanyl)phenyl]-1-[5-(3-methyl-5-{[4-(trifluoromethyl)pyrimidin-2-yl]amino}phenyl)-1,3-thiazol-2-yl]ethanol], the IC50 lay within 100 to 1000 nM.

As for `Cc1cc(Nc2nccc(C)n2)cc(-c2cnc(C3(O)CCC(CO)CC3)s2)c1` (stereo not shown) [Example 4C-9], the IC50 is < 100 nM. Under `Cc1cc(Nc2ncc(Cl)cn2)cc(-c2cncs2)c1` [Intermediate 48, 5-Chloro-N-[3-methyl-5-(1,3-thiazol-5-yl)phenyl]pyrimidin-2-amine] stands 100 to 1000 nM; under `O=C(c1ncc(-c2cccc(Nc3nccc(C(F)(F)F)n3)c2)s1)C1CC1` [Example 11, Cyclopropyl[5-(3-{[4-(trifluoromethyl)pyrimidin-2-yl]amino}phenyl)-1,3-thiazol-2-yl]methanone], < 100 nM; under `Cc1cc(Nc2nccc(C(F)(F)F)n2)cc(-c2cnc(C3(O)CN(C(C)(C)C(=O)OC(C)(C)C(=O)O)C3)s2)c1` [Example 53(2), 2-[(2-{3-Hydroxy-3-[5-(3-methyl-5-{[4-(trifluoromethyl)pyrimidin-2-yl]amino}phenyl)-1,3-thiazol-2-yl]azetidin-1-yl}-2-methylpropanoyl)oxy]-2-methylpropanoic acid], < 100 nM. The result for `Cc1cc(Nc2nccc(C(F)(F)F)n2)cc(-c2cnc(C3(O)CCCC(=O)C3(C)C)s2)c1` (stereo not shown) [Example 8B-1] reads < 100 nM; that for `Cc1cc(Nc2nccc(C(F)(F)F)n2)cc(-c2cnc(C(O)C(F)(F)F)s2)c1` (single isomer, unassigned) [Example 6-4], < 100 nM; that for `COC(=O)NS(=O)(=O)N1CCC(O)(c2ncc(-c3cc(C)cc(Nc4nccc(OC)n4)c3)s2)CC1` [54(1), Methyl {[4-hydroxy-4-(5-{3-[(4-methoxypyrimidin-2-yl)amino]-5-methylphenyl}-1,3-thiazol-2-yl)piperidin-1-yl]sulfonyl}carbamate], < 100 nM. Under `OC1(c2ncc(-c3cc(Nc4nccc(C(F)(F)F)n4)cc(C(F)(F)F)c3)s2)CCC1` [Example 2, 1-{5-[3-(trifluoromethyl)-5-{[4-(trifluoromethyl)pyrimidin-2-yl]amino}phenyl]-1,3-thiazol-2-yl}cyclobutanol] stands 100 to 1000 nM. For the compound `Cc1cc(Nc2nccc(C(F)(F)F)n2)cc(-c2cnc(C3(O)CCN(S(=O)(=O)NC(=O)OC(C)(C)C)CC3)s2)c1` [Example 48, tert-butyl({4-hydroxy-4-[5-(3-methyl-5-{[4-(trifluoromethyl)pyrimidin-2-yl]amino}phenyl)-1,3-thiazol-2-yl]piperidin-1-yl}sulfonyl)carbamate], the IC50 was < 100 nM. The result for `Cc1cc(Nc2ncc(F)c(C3CC3)n2)cc(-c2cnc(C(O)(CO)C(F)(F)F)s2)c1` (stereo not shown) [Example 58, 2-(5-{3-[(4-cyclopropyl-5-fluoropyrimidin-2-yl)amino]-5-methylphenyl}-1,3-thiazol-2-yl)-3,3,3-trifluoropropane-1,2-diol] reads < 100 nM. Under `Cc1cc(Nc2nccc(C)n2)cc(-c2cnc(C3(O)C4CC5CC3CC(O)(C5)C4)s2)c1` (stereo not shown) [Example 4B-29] stands < 100 nM.

In the case of `O=C1C[C@@H]2C[C@@](O)(c3ncc(-c4cccc(Nc5nccc(C(F)(F)F)n5)c4)s3)C[C@@H]2C1` [Example 4B-7], the IC50 was 100 to 1000 nM.
